Data from patent US20130338217A1, “ANTIBIOTIC COMPOSITION INCLUDING PHLOROTANNIN COMPOUND DERIVED FROM EISENIA BICYCLIS AS EFFECTIVE COMPONENT” (PUKYONG NATIONAL UNIVERSITY INDUSTRY-UNIVERSITY C, priority 2012, published 2013).
Values after ≈ are worked out from the molar mass of the structure shown. Like-named read-outs stand apart in the source and are kept apart here.

Key:
Assay type in all cases: cell-based, Staphylococcus aureus
MRSA (KCCM 40511) [1] = experiment: Minimum inhibitory concentration, two-fold serial dilution, MRSA KCCM 40511
Protocol: (§1) All the bacterial strains used for the Example were obtained from the Korean Collection of Type Cultures (KCTC; Daejeon, Korea) and the Korean Culture Center of Microorganisms (KCCM; Seoul, Korea). The bacterial strains used for the Example were methicillin-susceptible S. aureus (MSSA; KCTC 1927), two MRSA strains (KCCM 40510 and KCCM 40511). All strains were grown in Mueller-Hinton broth (MHB; Difco, Detroit, USA) or Tryptic soy broth (TSB; Difco) for minimum inhibitory concentration (MIC) assay and in Mueller-Hinton agar (MHA; Difco) for disc diffusion.
(§2) MIC means the lowest concentration of antimicrobials that will inhibit the visible growth of microorganisms after overnight incubation. MICS of the extracts and vancomycin were determined by the two-fold serial dilution method in MHB.

MRSA (KCCM 40510) [2] = experiment: Minimum inhibitory concentration, two-fold serial dilution, MRSA KCCM 40510
Protocol: as §1, §2

MSSA (KCTC 1927) = experiment: Minimum inhibitory concentration, two-fold serial dilution, MSSA KCTC 1927
Protocol: as §1, §2

[3] = test system: mec operon (mecA, mecI, mecR1); experiment: RT-PCR of drug resistance related genes in MRSA; details: MRSA cells treated with various concentrations
Protocol: In order to elucidate the inhibitory effect of phlorofucofuroeckol-A on expression of drug resistance related genes, MRSA cells were treated with various concentrations of phlorofucofuroeckol-A. After cell harvesting, Total RNA was isolated from the strains with zirconia beads and RNAwiz with the manufacturer's specifications. RNA concentrations were estimated via spectrophotometer at 260 nm. The 0.2-1.4 μg of total RNA plus 1.4 μg of random primer was denatured at 65° C. for 5 min, then cooled at 30 sec and preincubated for 2 min at 37° C. after the addition of 10 mM dithioothreitol (DTT), 2.5 mM each of dNTPs, and reaction buffer. Any remaining cRNA was removed via the addition of 2 units RNase H at 37° C. for 20 min. One hundred units of Superscript II reverse transcriptase were added and incubated for 50 min at 37° C. The reaction was then suspended at 70° C. for 15 min. One point five percent of the RT products were added to a PCR reaction which included PCR buffer (pH 8.4, 20 mM Tris, 50 mM KCl), 1.5 mM MgCl2, 0.5 mM dNTPs, 2 pM primers and 0.1 μL Taq DNA polymerase. Twenty-eight PCR cycles were then conducted follows: denaturation at 95° C. annealing at an indicated temperature for each primer and extension at 72° C. […]

MRSA = experiment: Synergy of PFF with β-lactams against MRSA as stated in text; details: PFF 25 pg/mL as printed
Protocol: (§3) The interaction between phlorofucofuroeckol-A (PFF) and β-lactams including ampicillin, penicillin and oxacillin against MRSA was tested by the checkerboard method. The synergistic effect was evaluated as a fractional inhibitory concentration (FIC) index. The FIC was calculated as the MICS of an antibiotic or phlorofucofuroeckol-A (PFF) in combination divided by the MIC of the antibiotic or PFF alone as follows.

PBP2a = experiment: Western blot of PBP2a in MRSA; details: MRSA cells treated with various concentrations
Protocol: In order to elucidate the inhibitory effect of phlorofucofuroeckol-A on expression of a drug resistance related protein, PBP2a, MRSA cells were treated with various concentrations of phlorofucofuroeckol-A. After cell harvesting, the bacterial lysates were prepared in a lysis buffer containing 20 mM Tris-HCl (pH 7.5), 2 mM ethyleneglycoltetraacetic acid (EGTA), 2 mM ethylenediaminetetraacetic acid (EDTA) and 0.25 M sucrose. The pellets were resuspended by sonication in lysis buffer 2 times for 20 sec. Following 10 min of centrifugation at 13,000×g, the supernatant was obtained as the cell lysate. Protein concentrations were measured with Bradford protein assay. An equal amount of 2×SDS-PAGE sample buffer (pH […], 1 mM EGTA, 1 mM EDTA, 1% SDS, 150 mM NaCl) was added to the tubes containing the cell lysate and the tubes were boiled for 3 min. Aliquots of cellular proteins were then electrophoresed on 10%.

MSSA (KCCTC 1927) = experiment: Checkerboard synergy of phlorofucofuroeckol-A and β-lactams, MSSA KCTC 1927; details: for MIC: Staphylococcus aureus, MSSA
MRSA (KCCM 40511) [4] = experiment: Checkerboard synergy of phlorofucofuroeckol-A and β-lactams, MRSA KCCM 40511; details: for MIC: Staphylococcus aureus
Protocol: as §3
(§4) The FIC was then summed to derive the FIC index, which indicated synergy when index values were as follows:
(§5) synergism ≦≦0.5, indifference >0.5 to ≦≦4, antagonism >4.
(§6) FICA=MICA in combination/MICA, FICB=MICB in combination/MICB

MRSA (KCCM 40510) [5] = experiment: Checkerboard synergy of phlorofucofuroeckol-A and β-lactams, MRSA KCCM 40510; details: for MIC: Staphylococcus aureus
Protocol: as §3, §4, §5, §6

[6] = Staphylococcus aureus, Table 6, isolated phlorotannins, read-out: MIC
[7] = Table 6, isolated phlorotannins
[8] = Table 5, PFF and β-lactams, mecA positive strain
[9] = in combination with phlorofucofuroeckol-A at 12.5 μg/ml, read-out: MIC of β-lactam (B)
[10] = in combination with phlorofucofuroeckol-A at 25 μg/ml, read-out: MIC of β-lactam (C)
[11] = without phlorofucofuroeckol-A, read-out: MIC of β-lactam (A)
[12] = β-lactam with phlorofucofuroeckol-A at 12.5 μg/ml, synergism ≦0.5, indifference >0.5 to ≦4, antagonism >4
[13] = β-lactam with phlorofucofuroeckol-A at 25 μg/ml, synergism ≦0.5, indifference >0.5 to ≦4, antagonism >4

Sequence of PBP2a (P07944 whole entry): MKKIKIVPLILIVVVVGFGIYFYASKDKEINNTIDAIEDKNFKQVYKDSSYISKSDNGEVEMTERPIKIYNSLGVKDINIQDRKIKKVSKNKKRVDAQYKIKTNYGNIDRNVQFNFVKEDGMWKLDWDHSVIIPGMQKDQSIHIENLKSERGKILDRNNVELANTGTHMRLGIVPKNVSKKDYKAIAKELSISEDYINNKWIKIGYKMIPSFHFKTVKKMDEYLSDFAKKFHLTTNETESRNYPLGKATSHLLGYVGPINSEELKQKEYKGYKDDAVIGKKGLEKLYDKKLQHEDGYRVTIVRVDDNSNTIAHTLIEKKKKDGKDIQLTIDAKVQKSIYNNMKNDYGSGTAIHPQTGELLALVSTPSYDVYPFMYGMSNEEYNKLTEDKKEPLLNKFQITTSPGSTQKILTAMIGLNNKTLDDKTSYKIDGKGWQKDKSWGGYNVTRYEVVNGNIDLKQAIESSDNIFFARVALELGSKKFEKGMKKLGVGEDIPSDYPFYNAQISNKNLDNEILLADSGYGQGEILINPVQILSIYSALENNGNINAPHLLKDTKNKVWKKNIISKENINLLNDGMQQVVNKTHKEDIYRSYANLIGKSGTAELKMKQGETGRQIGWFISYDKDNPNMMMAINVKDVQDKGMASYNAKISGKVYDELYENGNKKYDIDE

In the case of `Oc1cc(O)cc(Oc2c(O)cc(O)c3c2Oc2c(O)cc(O)cc2O3)c1` [EK, eckol], the MIC (MRSA (KCCM 40511) [1]; [6]) is reported as 64 µg/mL (≈ 172 µM), the MIC (MRSA (KCCM 40510) [2]; [6]) is reported as 64 µg/mL (≈ 172 µM) and the MIC (MSSA (KCTC 1927); [6]) is reported as 64 µg/mL (≈ 172 µM).

`Oc1cc(O)cc(Oc2c(O)cc(O)c3c2Oc2c(O)cc(Oc4c(O)cc(O)cc4O)cc2O3)c1` [PE, 1-(3′,5′-dihydroxyphenoxy)-7-(2″,4″,6-trihydroxyphenoxy)-2,4,9-trihydroxydibenzo-1,4-dioxin] gave an MIC (MRSA (KCCM 40511) [1]; [7]) of 64 µg/mL (≈ 129 µM), an MIC (MRSA (KCCM 40510) [2]; [7]) of 32 µg/mL (≈ 64.5 µM) and an MIC (MSSA (KCTC 1927); [7]) of 64 µg/mL (≈ 129 µM).

For `CN[C@H](CC(C)C)C(=O)N[C@H]1C(=O)N[C@@H](CC(N)=O)C(=O)N[C@H]2C(=O)N[C@H]3C(=O)N[C@H](C(=O)N[C@H](C(=O)O)c4cc(O)cc(O)c4-c4cc3ccc4O)[C@H](O)c3ccc(c(Cl)c3)Oc3cc2cc(c3O[C@@H]2O[C@H](CO)[C@@H](O)[C@H](O)[C@H]2O[C@H]2C[C@](C)(N)[C@H](O)[C@H](C)O2)Oc2ccc(cc2Cl)[C@H]1O` [Vancomycin, vancomycin], the MIC (MRSA (KCCM 40511) [1]; Staphylococcus aureus) was 2 µg/mL (≈ 1.38 µM), the MIC (MRSA (KCCM 40510) [2]; Staphylococcus aureus) was 2 µg/mL (≈ 1.38 µM) and the MIC (MSSA (KCTC 1927); Staphylococcus aureus) was 0.5 µg/mL (≈ 0.345 µM).

phlorofucofuroeckol A [PFF] was tested, and the “gene transcription of mec operon (mecA, mecI, mecR1)” value [3] was “inhibited the gene transcription of mec operon (mecA, mecI, mecR1) involving in synthesizing PBP2a depending on the concentrations”, the “effect on the MICs of the β-lactams against MRSA” value (MRSA) was “remarkably reduce the MICS of the β-lactams against MRSA” and the “PBP2a synthesis (protein expression)” value (PBP2a) was “inhibited a PBP2a synthesis that is a final product of mecA gene depending on the concentrations”. For the same compound, the MIC (MRSA (KCCM 40511) [1]; [8]) was 32 µg/mL, the MIC (MRSA (KCCM 40511) [1]; [7]) was 32 µg/mL and the MIC (MRSA (KCCM 40510) [2]; [8]) was 32 µg/mL. It also gave an MIC (MRSA (KCCM 40510) [2]; [7]) of 32 µg/mL, an MIC (MSSA (KCTC 1927); Table 5, PFF and β-lactams, mecA negative strain) of 32 µg/mL and an MIC (MSSA (KCTC 1927); [7]) of 32 µg/mL.

With `CC1(C)S[C@@H]2[C@H](NC(=O)[C@H](N)c3ccccc3)C(=O)N2[C@H]1C(=O)O` [Ampicillin, ampicillin] the MIC (MSSA (KCCTC 1927); [9]) was 0.063 µg/mL, the MIC (MSSA (KCCTC 1927); [10]) was 0.063 µg/mL and the MIC (MSSA (KCCTC 1927); [11]) was 0.063 µg/mL. For the same compound, the “FIC index (b)” value (MSSA (KCCTC 1927); [12]) was 1.391, the “FIC index (c)” value (MSSA (KCCTC 1927); [13]) was 1.781 and the MIC (MRSA (KCCM 40511) [4]; [9]) was 2 µg/mL. For the same compound, the MIC (MRSA (KCCM 40511) [4]; [10]) was 1 µg/mL, the MIC (MRSA (KCCM 40511) [4]; [11]) was 512 µg/mL and the “FIC index (b)” value (MRSA (KCCM 40511) [4]; [12]) was 0.395. The “FIC index (c)” value (MRSA (KCCM 40511) [4]; [13]) was 0.393, the MIC (MRSA (KCCM 40510) [5]; [9]) was 16 µg/mL and the MIC (MRSA (KCCM 40510) [5]; [10]) was 8 µg/mL. The MIC (MRSA (KCCM 40510) [5]; [11]) was 512 µg/mL, the “FIC index (b)” value (MRSA (KCCM 40510) [5]; [12]) was 0.422 and the “FIC index (c)” value (MRSA (KCCM 40510) [5]; [13]) was 0.407. For the same compound, the MIC (MSSA (KCTC 1927); Staphylococcus aureus, Table 5, PFF and β-lactams, mecA negative strain, read-out: MIC) was 0.063 µg/mL (≈ 0.18 µM).
